# Where “and” joins values, the source holds several entries; their conditions need not be identical. Equal entries are not always repeated. Where two headings read alike, the source gives them in different places.
# Key:
# [1] = test system: M. tuberculosis H37Rv (ATCC 27294); test: microbe, parasite or virus in culture; format: cell-based
# in vitro = details: human; for efflux ratio: Caco-2
# Method in brief: (§1)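 Values are bidirectional Caco-2 apparent permeabilities, P(A−B) and P(B−A), given in 10^-6 cm s-1. The efflux ratio divides P(B−A) by P(A−B), and intrinsic permeability averages the two directions.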
# Caco-2 monolayers = test: in vitro
# Method in brief: as §1
# [2] = format: in vitro ADME, Mice
# Description: (§2) The kinetics of compound degradation in liver microsomes is assessed in an assay with 1 µmol/l of compound and 0.5 mg/ml liver microsomes in a medium of 100 mM Tris-HCl pH 7.5, 6.5 mM MgCl2 and 1 mM NADPH at 37 °C. The reaction is stopped at multiple time points by adding acetonitrile. After centrifugation, the compound concentration is measured in the supernatants by high-performance liquid chromatography (HPLC) tandem mass spectrometry (MS/MS). The results are fitted to a first-order decay and the half-lives are converted to clearance (stated as % of the liver blood flow (%Qh)) using the well-stirred liver model.
# [3] = format: in vitro ADME, Human
# Msm 607 = test: microbe, parasite or virus in culture; format: cell-based
# [4] = format: in vitro ADME, Rat
# [5] = Hepatocyte stability, mice; format: in vitro ADME
# Method in brief: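 Cryopreserved mouse hepatocytes (about 1 million cells/mL, pH 7.4, 50% species serum) incubated with 1 µM compound, DMSO <0.05%, at 37 °C for up to 6 h, sampled at 6 time points. Parent remaining measured by HPLC-MS/MS; half-life converted via well-stirred liver model to clearance as % Qh.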
# [6] = format: in vitro ADME, Rat; remark: listed apart in the source
# Description: as §2
# [7] = target: ClpC1 NTD protein (M. tuberculosis) (Mycobacterium tuberculosis, UniProt P9WPC9); test: biochemical; format: binding
# Chain of ClpC1 NTD protein (M. tuberculosis) (P9WPC9 1-156, looked up, natural form): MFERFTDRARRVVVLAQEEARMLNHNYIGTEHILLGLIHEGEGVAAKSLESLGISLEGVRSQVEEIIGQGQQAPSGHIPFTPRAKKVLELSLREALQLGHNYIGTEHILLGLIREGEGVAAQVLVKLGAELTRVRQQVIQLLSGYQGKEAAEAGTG
# Msm 700084 = test: microbe, parasite or virus in culture; format: cell-based
# [8] = Microsomal stability, human; format: in vitro ADME
# Description: as §2
# [9] = Mycobacterium tuberculosis, M. tuberculosis H37Rv strain, read-out: MIC Mtb H37Rv Mean ± SD
# [10] = Mycobacterium tuberculosis, Mtb H37Rv (Supplementary Table 2), read-out: MIC Mtb
# [11] = Mycobacterium tuberculosis, individual measurements (source data), read-out: Mtb MIC
# [12] = Mycobacterium tuberculosis, single determinations, read-out: Mtb MIC
# [13] = Mycolicibacterium smegmatis, 607, read-out: MIC Msm 607
# [14] = SPR, individual measurements (source data), read-out: KD ClpC1-NTD
# [15] = SPR, single independent measurements
# [16] = SPR, single independent measurements, read-out: koff ClpC1-NTD
# [17] = SPR, read-out: ClpC1-NTD KD Mean ± SD
# [18] = Mycolicibacterium smegmatis, 700084, single determinations, read-out: Msm 700084 MIC
# [19] = Mycolicibacterium smegmatis, 700084, read-out: MIC Msm 700084
structure (smiles),measurement,setting,value
CCCCCn1cc(C[C@@H]2NC(=O)[C@H](CC(C)C)N(C)C(=O)[C@H](C(C)C)NC(=O)[C@H]([C@H](OC)c3ccccc3)NC(=O)[C@H](C)NC(=O)[C@H](C[C@@H](C)CO)N(C)C(=O)[C@H](Cc3cn(C)c4ccccc34)N(C)C2=O)nn1 [Compound 25],MIC,[1]; [9],6.3 µM
same,MIC,[1]; [10],6.3 µM
same,MIC,[1]; [11],6.25 µM
same,MIC,[1]; [12],6.25 µM
same,efflux ratio,in vitro,25.1
same,Papp A→B,"in vitro; Caco-2, CACO permeability PEAB",0.87 ×10⁻⁶ cm/s
same,Papp A→B,"in vitro; Caco-2, Caco-2 permeability P (A-B)",0.9 ×10⁻⁶ cm/s
same,Papp B→A,"in vitro; Caco-2, Caco-2 permeability P (B-A)",22 ×10⁻⁶ cm/s
same,Caco-2 Int. Perm,"Caco-2 monolayers; human, Caco-2",11.4
same,Permeability Correlation P (A-B),"Caco-2 monolayers; human, Caco-2",> 3
same,Permeability Correlation Ratio,"Caco-2 monolayers; human, Caco-2",> 1.5
same,Microsomal Stability Mouse QH,[2]; Mouse,79.2% and 83.9%
same,Microsomal Stability Mice,[2]; clearance in microsomes,82 %Qh
same,Hepatocyte Human,"[3]; human, pH 7.4",30 %Qh
same,MIC,Msm 607; [13],12.5 µM
same,MIC,"Msm 607; Mycolicibacterium smegmatis, 607, read-out: Msm 607 MIC, single determinations",12.5 µM
same,Hepatocyte Rat,"[4]; rat, pH 7.4",16 %Qh
same,Hepatocyte Mice,"[5]; mouse, pH 7.4",21 %Qh
same,Hepatocyte Stability Mouse QH,"[5]; mouse, pH 7.4",27.872%
same,Microsomal Stability Rat QH,[6]; Rat,62% and 62.6%
same,Microsomal Stability Rat,[6]; clearance in microsomes,62 %Qh
same,koff,"[7]; SPR dissociation rate constant, read-out: koff ClpC1-NTD Mean ± SD",0.1 s⁻¹
same,Kd,[7]; [14],26.2 nM and 26 nM
same,koff ClpC1-NTD,[7]; [15],1E-1 1E-1 1/s
same,koff,[7]; [16],0.1 s⁻¹
same,Kd,[7]; [17],26.1 ± 0.1 nM
same,MIC,Msm 700084; [18],12.5 µM
same,MIC,Msm 700084; [19],12.5 µM
same,Microsomal Stability Human QH,[8]; Human,>88.4 >88.4%
same,Microsomal Stability Human,[8]; clearance in microsomes,> 88 %Qh
CO[C@H](c1ccccc1)[C@@H]1NC(=O)[C@H](C)NC(=O)[C@H](C[C@@H](C)CO)N(C)C(=O)[C@H](Cc2cn(C)c3ccccc23)N(C)C(=O)[C@H](Cc2cn(CCCCCn3cc(C[C@@H]4NC(=O)[C@H](CC(C)C)N(C)C(=O)[C@H](C(C)C)NC(=O)[C@H]([C@H](OC)c5ccccc5)NC(=O)[C@H](C)NC(=O)[C@H](C[C@@H](C)CO)N(C)C(=O)[C@H](Cc5cn(C)c6ccccc56)N(C)C4=O)nn3)nn2)NC(=O)[C@H](CC(C)C)N(C)C(=O)[C@H](C(C)C)NC1=O [Compound 22],MIC,[1]; [9],3.1 µM
same,MIC,[1]; [10],3.1 µM
same,MIC,[1]; [11],3.12 µM
same,MIC,[1]; [12],3.12 µM
same,MIC,"[1]; individual measurements (source data), read-out: Mtb MIC",3.125 µM
same,efflux ratio,in vitro,0.3
same,Papp B→A,"in vitro; Caco-2, CACO permeability PEBA, basolateral to apical",< 0.051 ×10⁻⁶ cm/s
same,Papp A→B,"in vitro; Caco-2, Caco-2 permeability P (A-B), apical to basolateral",0.5 ×10⁻⁶ cm/s
same,Papp B→A,"in vitro; Caco-2, Caco-2 permeability P (B-A), basolateral to apical",0.2 ×10⁻⁶ cm/s
same,Permeability Correlation P (A-B),"Caco-2 monolayers; influence of Trp-Nα methylation on P(A-B), matched pair, listed under the methylated partner",0.7
same,Permeability Correlation Ratio,"Caco-2 monolayers; influence of Trp-Nα methylation on efflux ratio, matched pair, listed under the methylated partner",1
same,Caco-2 Int. Perm,Caco-2 monolayers; mean value of P(A−B) and P(B−A),0.3 10-6 cm s-1
same,Hepatocyte Human,[3]; clearance in hepatocytes,12 %Qh
same,MIC,Msm 607; [13],2.3 ± 1.1 µM
same,Hepatocyte Stability Rat QH,[4]; Rat,9.923%
same,Hepatocyte Rat,[4]; clearance in hepatocytes,10 %Qh
same,Hepatocyte Mice,[5]; clearance in hepatocytes,15 %Qh
same,Kd,[7]; [14],0.764 nM and 1.13 nM
same,koff ClpC1-NTD,[7]; [15],0.01 s⁻¹
same,koff,[7]; [16],0.007 s⁻¹
same,Kd,[7]; [17],0.9 ± 0.3 nM
same,MIC,Msm 700084; [18],> 50 µM
same,MIC,Msm 700084; [19],> 50 µM

# From publication PMC10914731, “Homo-BacPROTAC-induced degradation of ClpC1 as a strategy against drug-resistant mycobacteria” (Nature Communications, 2024)
